Source: ChEMBL document CHEMBL3045098, “Petra, Osiris and Molinspiration (POM) together as a successful support in drug design: antibacterial activity and biopharmaceutical characterization of some azo Schiff bases” (2012)
The source made the active and inactive calls. The rule behind the calls is not given here.

Assays:
Type in all cases: functional
[1] = test system: Pseudomonas aeruginosa; assay: Antimicrobial activity against Pseudomonas aeruginosa at 2000 ug after 24 hr by disk diffusion method relative to control
[2] = test system: Klebsiella pneumoniae; assay: Antimicrobial activity against Klebsiella pneumoniae at 2000 ug after 24 hr by disk diffusion method relative to control
[3] = test system: Bacillus subtilis; assay: Antimicrobial activity against Bacillus subtilis at 2000 ug after 24 hr by disk diffusion method relative to control
[4] = test system: Staphylococcus aureus; assay: Antimicrobial activity against Staphylococcus aureus at 2000 ug after 24 hr by disk diffusion method relative to control
[5] = test system: Staphylococcus aureus; assay: Antimicrobial activity against Staphylococcus aureus at 2000 ug after 24 hr by disk diffusion method; settings: read-out: IZ
[6] = test system: Bacillus subtilis; assay: Antimicrobial activity against Bacillus subtilis at 2000 ug after 24 hr by disk diffusion method; settings: read-out: IZ
[7] = test system: Escherichia coli; assay: Antimicrobial activity against Escherichia coli at 2000 ug after 24 hr by disk diffusion method relative to control
[8] = test system: Escherichia coli; assay: Antimicrobial activity against Escherichia coli at 2000 ug after 24 hr by disk diffusion method; settings: read-out: IZ
[9] = test system: Pseudomonas aeruginosa; assay: Antimicrobial activity against Pseudomonas aeruginosa at 2000 ug after 24 hr by disk diffusion method; settings: read-out: IZ
[10] = test system: Klebsiella pneumoniae; assay: Antimicrobial activity against Klebsiella pneumoniae at 2000 ug after 24 hr by disk diffusion method; settings: read-out: IZ

Row | SMILES | inhibition [1] | inhibition [2] | inhibition (INH) [3] [%] | inhibition (INH) [4] [%] | zone of inhibition at 2000 µg/disc [5] [mm] | zone of inhibition at 2000 µg/disc [6] [mm] | inhibition [7] | inhibition (INH) [1] [%] | inhibition (INH) [2] [%] | zone of inhibition at 2000 µg/disc [8] [mm] | zone of inhibition at 2000 µg/disc [9] [mm] | zone of inhibition at 2000 µg/disc [10] [mm] | inhibition (INH) [7] [%]
1 | COc1ccc(/N=N/c2cc(/C=N/c3cccc(O)c3)c(O)c(OC)c2)cc1 | inactive | inactive | 45 | 45 | 10 | 10 | inactive | – | – | – | – | – | –
2 | COc1ccc(/N=C/c2cc(/N=N/c3ccc(OC)cc3)cc(OC)c2O)cc1 | inactive | inactive | – | – | – | – | inactive | – | – | – | – | – | –
3 | CC1(C)S[C@@H]2[C@H](NC(=O)[C@H](N)c3ccccc3)C(=O)N2[C@H]1C(=O)O | inactive | inactive | – | – | – | – | inactive | – | – | – | – | – | –
4 | CN[C@@H]1[C@H](O[C@H]2[C@H](O[C@H]3[C@H](O)[C@@H](O)[C@H](N=C(N)N)[C@@H](O)[C@@H]3N=C(N)N)O[C@@H](C)[C@]2(O)C=O)O[C@@H](CO)[C@H](O)[C@H]1O [STREPTOMYCIN] | – | – | 64 | 45 | 10 | 14 | – | 64 | 64 | 14 | 14 | 14 | 64
5 | COc1ccc(/N=N/c2cc(/C=N/Cc3ccccc3)c(O)c(OC)c2)cc1 | inactive | inactive | – | – | – | – | inactive | – | – | – | – | – | –
6 | COc1ccc(/N=N/c2cc(/C=N/c3ccccc3OC)c(O)c(OC)c2)cc1 | inactive | inactive | – | – | – | – | inactive | – | – | – | – | – | –
7 | COc1ccc(/N=N/c2cc(/C=N/c3ccccc3)c(O)c(OC)c2)cc1 | inactive | inactive | 45 | 45 | 10 | 10 | inactive | – | – | – | – | – | –
8 | COc1ccc(/N=N/c2cc(/C=N/c3ccc(Oc4cccc(/N=C/c5cc(/N=N/c6ccc(OC)cc6)cc(OC)c5O)c4)cc3)c(O)c(OC)c2)cc1 | inactive | inactive | – | – | – | – | inactive | – | – | – | – | – | –
9 | COc1ccc(/N=N/c2cc(/C=N/c3ccccc3C)c(O)c(OC)c2)cc1 | inactive | inactive | – | – | – | – | inactive | – | – | – | – | – | –
10 | COc1ccc(/N=N/c2cc(/C=N/c3ccc(S(=O)(=O)c4cccc(/N=C/c5cc(/N=N/c6ccc(OC)cc6)cc(OC)c5O)c4)cc3)c(O)c(OC)c2)cc1 | inactive | inactive | 64 | 45 | 10 | 14 | inactive | – | – | – | – | – | –
11 | COc1ccc(/N=N/c2cc(C=O)c(O)c(OC)c2)cc1 | inactive | inactive | 45 | 45 | 10 | 10 | inactive | – | – | – | – | – | –
12 | COc1ccc(/N=N/c2cc(/C=N/c3cccc(OC)c3)c(O)c(OC)c2)cc1 | inactive | inactive | 45 | 45 | 10 | 10 | inactive | – | – | – | – | – | –
13 | COc1ccc(/N=N/c2cc(/C=N/c3cccc(C)c3)c(O)c(OC)c2)cc1 | inactive | inactive | 45 | 45 | 10 | 10 | inactive | – | – | – | – | – | –
